Source: US7687515B2, “6-phenyl-1H-imidazo[4,5-c]pyridine-4-carbonitrile derivatives” (priority 2006, dated 2010)

The molecules below were run against recombinant human Cathepsin S (Homo sapiens, UniProt P25774) (assay: Cathepsin S assay: inhibition of recombinant human Cathepsin S (Z-Val-Val-Arg-AMC fluorescence)).
Sequence of recombinant human Cathepsin S (P25774 115-331): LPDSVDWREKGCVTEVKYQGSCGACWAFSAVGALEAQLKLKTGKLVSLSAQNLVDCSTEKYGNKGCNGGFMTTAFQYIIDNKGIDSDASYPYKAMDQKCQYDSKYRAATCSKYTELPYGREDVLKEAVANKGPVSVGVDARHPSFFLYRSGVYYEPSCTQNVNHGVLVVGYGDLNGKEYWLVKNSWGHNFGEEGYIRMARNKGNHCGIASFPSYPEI
Type: biochemical
Protocol: Cathepsin S Assay Procedure
25 μl of a 2 mg/l solution of activated recombinant human cathepsin S, in assay buffer, is then added to the well, yielding a final inhibitor concentration of 10 μM.
Enzyme activity is determined by measuring the fluorescence of the liberated aminomethylcoumarin at […] using 390 nm excitation, at 20 minutes. Percentage enzyme activity is calculated by comparison of this activity to that of a solution containing no inhibitor.
With `CCOc1ccc(-c2cc3[nH]cnc3c(C#N)n2)cc1C(F)(F)F` [Example 1, 6-(4-Ethoxy-3-trifluoromethyl-phenyl)-1H-imidazo[4.5-c]pyridine-4-carbonitrile] the IC50 was under 100 nM. In the case of `CCOc1ccc(-c2cc3c(ncn3CC(=O)O)c(C#N)n2)cc1C(F)(F)F` [Example 3, [4-Cyano-6-(4-ethoxy-3-trifluoromethyl-phenyl)-imidazo[4,5-c]pyridin-1-yl]-acetic acid], the IC50 is reported as under 100 nM. Molecule `CCOc1ccc(-c2cc3[nH]c(CN4CCNC(=O)C4)nc3c(C#N)n2)cc1C(F)(F)F` [Example 5d, 6-(4-Ethoxy-3-trifluoromethyl-phenyl)-2-(3-oxo-piperazine-1-ylmethyl)-1H-imidazo[4,5,c]pyridine-4-carbonitrile] has an IC50 of under 100 nM. `CCOc1ccc(-c2cc3c(ncn3CCN3CCOCC3)c(C#N)n2)cc1C(F)(F)F` [Example 9a, 6-(4-Ethoxy-3-trifluoromethyl-phenyl)-1-(2-morpholin-4-yl-ethyl)-1H-imidazo[4,5-c]pyridine-4-carbonitrile] showed an IC50 of under 100 nM. In the case of `CCOc1ccc(-c2cc3c(ncn3CCN3CCCCC3)c(C#N)n2)cc1C(F)(F)F` [Example 9d, 6-(4-Ethoxy-3-trifluoromethyl-phenyl)-1-(2-piperidin-1-yl-ethyl)-1H-imidazo[4,5-c]-pyridine-4-carbonitrile], the IC50 is reported as under 100 nM. With `CCOc1ccc(-c2cc3c(ncn3CCN(C)C)c(C#N)n2)cc1C(F)(F)F` [Example 9f, 1-(2-Dimethylamino-ethyl)-6-(4-ethoxy-3-trifluoromethyl-phenyl)-1H-imidazo [4,5-c]pyridine-4-carbonitrile] the IC50 was under 100 nM. Molecule `CCOc1ccc(-c2cc3c(ncn3CCCN3CCOCC3)c(C#N)n2)cc1C(F)(F)F` [Example 10a, 6-(4-Ethoxy-3-trifluoromethyl-phenyl)-1-(3-morpholin-4-yl-propyl)-1H-imidazo[4,5-c]pyridine-4-carbonitrile] has an IC50 of under 100 nM. With `CCOc1ccc(-c2cc3c(ncn3CCCN(C)C)c(C#N)n2)cc1C(F)(F)F` [Example 10f, 1-(3-Dimethylamino-propyl)-6-(4-ethoxy-3-trifluoromethyl-phenyl)-1H-imidazo-[4,5-c]pyridine-4-carbonitrile] the IC50 was under 100 nM. With `CCOc1ccc(-c2cc3[nH]c(CN4CCN(C)CC4)nc3c(C#N)n2)cc1C(F)(F)F` [Example 11a, 6-(4-Ethoxy-3-trifluoromethyl-phenyl)-2-(4-methyl-piperazin-1-ylmethyl)-1H-imidazo-[4,5-c]pyridine-4-carbonitrile] the IC50 was under 100 nM. `CCOc1ccc(-c2cc3[nH]c(CNCCO)nc3c(C#N)n2)cc1C(F)(F)F` [Example 11h, 6-(4-Ethoxy-3-trifluoromethyl-phenyl)-2-[(2-hydroxy-ethylamino)-methyl]-1H-imidazo[4,5-c]pyridine-4-carbonitrile] showed an IC50 of under 100 nM. Work on `CCOc1ccc(-c2cc3[nH]c(CN4CNC(=O)C4)nc3c(C#N)n2)cc1C(F)(F)F` [Example 13d, 6-(4-Ethoxy-3-trifluoromethyl-phenyl)-2-(4-oxo-imidazolidin-1-ylmethyl)-1H-imidazo[4,5-c]pyridine-4-carbonitrile] yielded an IC50 of under 100 nM. `CCOc1ccc(-c2cc3[nH]c(CN4CCN(CCOC)CC4)nc3c(C#N)n2)cc1C(F)(F)F` [Example 13i, 6-(4-Ethoxy-3-trifluoromethyl-phenyl)-2-[4-(2-methoxy-ethyl)-piperazin-1-yl-methyl]-1H-imidazo[4,5-c]pyridine-4-carbonitrile] showed an IC50 of under 100 nM.
